“And” between values parts separate entries of the source, which are not always exact repeats. Equal entries are not always repeated.
System: citric acid (1M) evoked cough in guinea pigs
Assay: Citric acid (1M) aerosol-evoked coughs and sneezes in conscious guinea pigs after oral pre-treatment
Format: in vivo, Male Dunkin Hartley guinea pigs
Procedure: The guinea pig species used in one study was twenty four Male Dunkin Hartley guinea pigs, each weighing between 300 and 350 g, which were supplied by Marshall Bioresources Ltd, UK.
A test compound, Ifenprodil, and Gefapixant (in powder form) were prepared and formulated by initially adding 100% propylene glycol at the required volume for the final treatment buffer. The additional buffer ingredients were added in a stepwise fashion, initially solutol and then captisol. Each ingredient was added in a volume equivalent to that which is required for the final volume of treatment buffer for the stock formulation.
In particular, for Gefapixant, this was 0.7 mg/mL, a concentration that delivers 3.5 mg/Kg in a dose volume of 5 mL/Kg. For Ifenprodil, this was 0.3 mg/mL, a concentration that delivers 1.5 mg/Kg in a dose volume of 5 mL/Kg.
Prior to the addition of each buffer ingredient, the test compound formulations were sonicated for 15 min using a Branson 1510 Sonicator. Afterwards, the initial formulation of the test compound and Gefapixant were diluted with a prepared buffer vehicle to provide additional dosing formulations. This was 0.01 to 0.2 mg/ml, preferably 0.06 mg/mL, a dose that delivers 0.3 mg/Kg in a dose volume of 5 mL/Kg.
The final test compound buffer vehicle comprised of 10:10:80 mix of propylene glycol:20% Solutol in PBS:5% Captisol in PBS.
All final test and control formulations were sonicated for 30 min prior to dosing to generate an even suspension or to ensure that the formulation had visibly dissolved.
The animals were first pre-treated (5 mL/Kg, p.o.) with the vehicle, the test compound, or Gefapixant prior to tussive agent (citric acid) exposure, using the amounts set out in Table 1 below. In each case, the route of administration of the treatment was oral.
Animals receiving Gefapixant (3.5 mg/Kg) were dosed 2 hours prior to tussive agent exposure. Animals receiving Ifenprodil (1.5 mg/Kg) were dosed 30 minutes prior to tussive agent exposure.
10 min prior to the tussive evaluation, each animal was individually placed into a purpose built exposure chamber with a supplied airflow through a nebuliser of 2 L/min, and allowed to settle into its new environment.
Following the acclimatisation period, each animal was then exposed for 10 min to an aerosol of 1M citric acid using an ultrasonic nebuliser (Aerogen) set at a nominal liquid consumption rate of 0.6 mL/min.
Coughs and sneezes elicited during the 10 minute aerosol of 1M citric acid, and a subsequent 5 minute observation period, were recorded manually to monitor the animal's welfare. […] The data was analysed for onset of cough, cough numbers and frequency, and sneezes.
The following measurements and assessments were taken for each guinea pig: • Mean total number of coughs evoked in each treatment group • Mean onset of first cough in each group • Mean number of coughs per minute during citric acid exposure in each treatment group
Inter-group deviations were statistically analyzed by a one-way analysis of variance (ANOVA). In the case of significant difference in the mean values among the different levels of treatment, comparisons versus the citric acid vehicle group were carried out using the Dunnett's test. p<0.05 was considered statistically significant.

[1] = Mean of n=6 animals, 10 min Citric acid (1M) exposure, Gefapixant 3.5 mg/Kg p.o., Ifenprodil 1.5 mg/Kg
[2] = Mean of n=6 animals, Post Exposure (5 mins) after 10 min Citric acid (1M), Gefapixant 3.5 mg/Kg p.o., Ifenprodil 1.5 mg/Kg
[3] = Total of n=6 animals, 10 min Citric acid (1M) exposure, Gefapixant 3.5 mg/Kg p.o., Ifenprodil 1.5 mg/Kg
[4] = Total of n=6 animals, Post Exposure (5 mins) after 10 min Citric acid (1M), Gefapixant 3.5 mg/Kg p.o., Ifenprodil 1.5 mg/Kg
[5] = individual animals (ID 1-6), 10 min Citric acid (1M) exposure, Gefapixant 3.5 mg/Kg p.o., Ifenprodil 1.5 mg/Kg
[6] = individual animals (ID 1-6), Post Exposure (5 mins) after 10 min Citric acid (1M), Gefapixant 3.5 mg/Kg p.o., Ifenprodil 1.5 mg/Kg

C[C@@H]([C@H](O)c1ccc(O)cc1)N1CCC(Cc2ccccc2)CC1 (racemic) [Ifenprodil, 4-[2-(4-benzylpiperidin-1-ium-1-yl)-1-hydroxypropyl] phenol; 2,3,4-trihydroxy-4-oxobutanoate]
Total Coughs, Mean (10 min citric acid (1M) exposure + 5 min post exposure, group mean, n=6): 17.17 | Total Coughs, individual animal (10 min citric acid (1M) exposure + 5 min post exposure, individual animals 1-6): 16 (2×) and 17 and 23 and 19 and 12 | average number of coughs per animal (total number of coughs) (10 min citric acid (1M) exposure + 5 min recovery, Gefapixant 3.5 mg/Kg p.o. 2 hrs prior, Ifenprodil 1.5 mg/Kg p.o. 30 min prior, n=6): 17.17 coughs per animal | reduction in mean cough frequency vs untreated control (Ifenprodil 1.5 mg/kg (p<0.01), Gefapixant 3.5 mg/kg (p<0.05)): 42% | Sneezes, Observation Period 0-1, group Mean [1]: 0.2 | Sneezes, Observation Period 1-2, group Mean [1]: 0.5 | Sneezes, Observation Period 2-3, group Mean [1]: 0.3 | Sneezes, Observation Period 3-4, group Mean [1]: 0.3 | Sneezes, Observation Period 4-5, group Mean [1]: 0.5 | Sneezes, Observation Period 5-6, group Mean [1]: 0.3 | Sneezes, Observation Period 6-7, group Mean [1]: 0.7 | Sneezes, Observation Period 7-8, group Mean [1]: 0.5 | Sneezes, Observation Period 8-9, group Mean [1]: 0.0 | Sneezes, Observation Period 9-10, group Mean [1]: 0.0 | Sneezes, Observation Period 10-11, group Mean [2]: 0.0 | Sneezes, Observation Period 11-12, group Mean [2]: 0.0 | Sneezes, Observation Period 12-13, group Mean [2]: 0.0 | Sneezes, Observation Period 13-14, group Mean [2]: 0.0 | Sneezes, Observation Period 14-15, group Mean [2]: 0.0 | Total Sneezes, group Mean (Mean of n=6 animals, whole observation period 0-15 (10 min Citric acid (1M) exposure + Post Exposure 5 mins), Gefapixant 3.5 mg/Kg p.o., Ifenprodil 1.5 mg/Kg): 3.33 | Sneezes, Observation Period 0-1, group Total [3]: 1.0 | Sneezes, Observation Period 1-2, group Total [3]: 3.0 | Sneezes, Observation Period 2-3, group Total [3]: 2.0 | Sneezes, Observation Period 3-4, group Total [3]: 2.0 | Sneezes, Observation Period 4-5, group Total [3]: 3.0 | Sneezes, Observation Period 5-6, group Total [3]: 2.0 | Sneezes, Observation Period 6-7, group Total [3]: 4.0 | Sneezes, Observation Period 7-8, group Total [3]: 3.0 | Sneezes, Observation Period 8-9, group Total [3]: 0.0 | Sneezes, Observation Period 9-10, group Total [3]: 0.0 | Sneezes, Observation Period 10-11, group Total [4]: 0.0 | Sneezes, Observation Period 11-12, group Total [4]: 0.0 | Sneezes, Observation Period 12-13, group Total [4]: 0.0 | Sneezes, Observation Period 13-14, group Total [4]: 0.0 | Sneezes, Observation Period 14-15, group Total [4]: 0.0 | first onset of cough (citric acid (1M) exposure, Gefapixant 3.5 mg/Kg p.o., Ifenprodil 1.5 mg/Kg p.o., group mean, n=6): 59.8 s | average number of sneezes per animal (citric acid (1M) exposure, Gefapixant 3.5 mg/Kg p.o., Ifenprodil 1.5 mg/Kg p.o., n=6): 3.33 sneezes per animal | Onset (sec), Mean (citric acid (1M) exposure, group mean, n=6): 59.8 s | Onset (sec), individual animal (citric acid (1M) exposure, individual animals 1-6): 65 sec and 69 sec and 43 sec (2×) and 72 sec and 67 sec | Sneezes, Observation Period 0-1 [5]: 0 (5×) and 1 | Sneezes, Observation Period 1-2 [5]: 1 (3×) and 0 (3×) | Sneezes, Observation Period 2-3 [5]: 0 (4×) and 1 (2×) | Sneezes, Observation Period 3-4 [5]: 1 (2×) and 0 (4×) | Sneezes, Observation Period 4-5 [5]: 0 (4×) and 1 and 2 | Sneezes, Observation Period 5-6 [5]: 1 (2×) and 0 (4×) | Sneezes, Observation Period 6-7 [5]: 1 (4×) and 0 (2×) | Sneezes, Observation Period 7-8 [5]: 0 (3×) and 1 (3×) | Sneezes, Observation Period 8-9 [5]: 0 | Sneezes, Observation Period 9-10 [5]: 0 | Sneezes, Observation Period 10-11 [6]: 0 | Sneezes, Observation Period 11-12 [6]: 0 | Sneezes, Observation Period 12-13 [6]: 0 | Sneezes, Observation Period 13-14 [6]: 0 | Sneezes, Observation Period 14-15 [6]: 0 | Total Sneezes (individual animals (ID 1-6), whole observation period 0-15 (10 min Citric acid (1M) exposure + Post Exposure 5 mins), Gefapixant 3.5 mg/Kg p.o., Ifenprodil 1.5 mg/Kg): 4 and 3 (3×) and 5 and 2 | Cough, observation period 0-1, Mean (min 0-1 of citric acid (1M) exposure, group mean, n=6): 0.7 | Cough, observation period 0-1, individual animal (min 0-1 of citric acid (1M) exposure, individual animals 1-6): 0 (3×) and 1 (2×) and 2 | Cough, observation period 0-1, Total (min 0-1 of citric acid (1M) exposure, sum over 6 animals): 4.0 | Cough, observation period 1-2, Mean (min 1-2 of citric acid (1M) exposure, group mean, n=6): 1.5 | Cough, observation period 1-2, individual animal (min 1-2 of citric acid (1M) exposure, individual animals 1-6): 1 (3×) and 2 (3×) | Cough, observation period 1-2, Total (min 1-2 of citric acid (1M) exposure, sum over 6 animals): 9.0 | Cough, observation period 2-3, Mean (min 2-3 of citric acid (1M) exposure, group mean, n=6): 2.3 | Cough, observation period 2-3, individual animal (min 2-3 of citric acid (1M) exposure, individual animals 1-6): 3 (4×) and 2 and 0 | Cough, observation period 2-3, Total (min 2-3 of citric acid (1M) exposure, sum over 6 animals): 14.0 | Cough, observation period 3-4, Mean (min 3-4 of citric acid (1M) exposure, group mean, n=6): 2.2 | Cough, observation period 3-4, individual animal (min 3-4 of citric acid (1M) exposure, individual animals 1-6): 3 (2×) and 2 (3×) and 1 | Cough, observation period 3-4, Total (min 3-4 of citric acid (1M) exposure, sum over 6 animals): 13.0 | Cough, observation period 4-5, Mean (min 4-5 of citric acid (1M) exposure, group mean, n=6): 2.5 | Cough, observation period 4-5, individual animal (min 4-5 of citric acid (1M) exposure, individual animals 1-6): 3 (4×) and 2 and 1 | Cough, observation period 4-5, Total (min 4-5 of citric acid (1M) exposure, sum over 6 animals): 15.0 | Cough, observation period 5-6, Mean (min 5-6 of citric acid (1M) exposure, group mean, n=6): 2.3 | Cough, observation period 5-6, individual animal (min 5-6 of citric acid (1M) exposure, individual animals 1-6): 2 (4×) and 3 (2×) | Cough, observation period 5-6, Total (min 5-6 of citric acid (1M) exposure, sum over 6 animals): 14.0 | Cough, observation period 6-7, Mean (min 6-7 of citric acid (1M) exposure, group mean, n=6): 1.3 | Cough, observation period 6-7, individual animal (min 6-7 of citric acid (1M) exposure, individual animals 1-6): 1 (3×) and 2 and 0 and 3 | Cough, observation period 6-7, Total (min 6-7 of citric acid (1M) exposure, sum over 6 animals): 8.0 | Cough, observation period 7-8, Mean (min 7-8 of citric acid (1M) exposure, group mean, n=6): 1.7 | Cough, observation period 7-8, individual animal (min 7-8 of citric acid (1M) exposure, individual animals 1-6): 1 (2×) and 2 (4×) | Cough, observation period 7-8, Total (min 7-8 of citric acid (1M) exposure, sum over 6 animals): 10.0 | Cough, observation period 8-9, Mean (min 8-9 of citric acid (1M) exposure, group mean, n=6): 1.0 | Cough, observation period 8-9, individual animal (min 8-9 of citric acid (1M) exposure, individual animals 1-6): 0 (2×) and 1 (3×) and 3 | Cough, observation period 8-9, Total (min 8-9 of citric acid (1M) exposure, sum over 6 animals): 6.0 | Cough, observation period 9-10, Mean (min 9-10 of citric acid (1M) exposure, group mean, n=6): 0.8 | Cough, observation period 9-10, individual animal (min 9-10 of citric acid (1M) exposure, individual animals 1-6): 1 (3×) and 0 (2×) and 2 | Cough, observation period 9-10, Total (min 9-10 of citric acid (1M) exposure, sum over 6 animals): 5.0 | Cough, observation period 10-11, Mean (min 10-11, post exposure, group mean, n=6): 0.7 | Cough, observation period 10-11, individual animal (min 10-11, post exposure, individual animals 1-6): 0 (2×) and 1 (4×) | Cough, observation period 10-11, Total (min 10-11, post exposure, sum over 6 animals): 4.0 | Cough, observation period 11-12, Mean (min 11-12, post exposure, group mean, n=6): 0.2 | Cough, observation period 11-12, individual animal (min 11-12, post exposure, individual animals 1-6): 1 and 0 (5×) | Cough, observation period 11-12, Total (min 11-12, post exposure, sum over 6 animals): 1.0 | Cough, observation period 12-13, Mean (min 12-13, post exposure, group mean, n=6): 0.0 | Cough, observation period 12-13, individual animal (min 12-13, post exposure, individual animals 1-6): 0 | Cough, observation period 12-13, Total (min 12-13, post exposure, sum over 6 animals): 0.0 | Cough, observation period 13-14, Mean (min 13-14, post exposure, group mean, n=6): 0.0 | Cough, observation period 13-14, individual animal (min 13-14, post exposure, individual animals 1-6): 0 | Cough, observation period 13-14, Total (min 13-14, post exposure, sum over 6 animals): 0.0 | Cough, observation period 14-15, Mean (min 14-15, post exposure, group mean, n=6): 0.0 | Cough, observation period 14-15, individual animal (min 14-15, post exposure, individual animals 1-6): 0 | Cough, observation period 14-15, Total (min 14-15, post exposure, sum over 6 animals): 0.0 | anti-tussive effect (in words) (oral administration, conscious guinea pigs with citric acid): shows efficacy in preventing and/or alleviating coughing

Source: patent US12472170B2, “Use of glutamate 2B receptor antagonists and sigma receptor agonists as antitussives” (Seyltx, Inc., priority 2019, dated 2025)
